# In patent US6737383B1, “Herbicidal oxadiazolidines” (priority 1999, dated 2004):
# Tests used:
# purple nutsedge = experiment: Test B pre/postemergence purple nutsedge; format: in vivo, Cyperus rotundus
# Procedure, shortened: (§1)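 Herbicidal effect was estimated by eye on a ten-point control scale after plants spent twelve to sixteen days in a greenhouse following soil or foliar treatment. Foliar sprays targeted plants at one to four leaves; all doses were formulated in a non-phytotoxic solvent with surfactant.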
# surinam grass = experiment: Test B pre/postemergence surinam grass; format: in vivo, Brachiaria decumbens
# Procedure, shortened: as §1
# bamyardgrass = experiment: Test B flood test barnyardgrass; format: in vivo, Echinochloa crus-galli
# Procedure, shortened: (§2)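 Flood test on plants grown to the 2-leaf stage; treated plants kept in greenhouse twelve to sixteen days, then visually rated against controls on a 0 (no effect) to 10 (complete control) scale.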
# sugar beet = experiment: Test B pre/postemergence sugar beet; format: in vivo, Beta vulgaris
# Procedure, shortened: as §1
# crabgrass = experiment: Test B pre/postemergence crabgrass; format: in vivo, Digitaria sanguinalis
# Procedure, shortened: as §1
# wild oat = experiment: Test B pre/postemergence wild oat; format: in vivo, Avena fatua
# Procedure, shortened: as §1
# cocklebur = experiment: Test B pre/postemergence cocklebur; format: in vivo, Xanthium strumarium
# Procedure, shortened: as §1
# soybean = experiment: Test B pre/postemergence soybean; format: in vivo, Glycine max
# Procedure, shortened: as §1
# corn = experiment: Test B pre/postemergence corn; format: in vivo, Zea mays
# Procedure, shortened: as §1
# rape = experiment: Test B pre/postemergence rape; format: in vivo, Brassica napus
# Procedure, shortened: as §1
# blackgrass = experiment: Test B pre/postemergence blackgrass; format: in vivo, Alopecurus myosuroides
# Procedure, shortened: as §1
# wheat = experiment: Test B pre/postemergence wheat; format: in vivo, Triticum aestivum
# Procedure, shortened: as §1
# pigweed = experiment: Test B pre/postemergence pigweed; format: in vivo, Amaranthus retroflexus
# Procedure, shortened: as §1
# smallflower flatsedge = experiment: Test B flood test smallflower flatsedge; format: in vivo, Cyperus difformis
# Procedure, shortened: as §2
# velvetleaf = experiment: Test B pre/postemergence velvetleaf; format: in vivo, Abutilon theophrasti
# Procedure, shortened: as §1
# bedstraw = experiment: Test B pre/postemergence bedstraw; format: in vivo, Galium aparine
# Procedure, shortened: as §1
# [1] = Postemergence, Rate 62 g/ha, scale 0 to 10, 0 is no effect, 10 is complete control
# [2] = Postemergence, Rate 125 g/ha, scale of 0 to 10 where 0 is no effect and 10 is complete control
# [3] = Postemergence, Rate 250 g/ha, scale 0 to 10, 0 no effect, 10 complete control
# [4] = Preemergence, Rate 62 g/ha, scale 0 to 10 (0 no effect, 10 complete control)
# [5] = Preemergence, Rate 125 g/ha, scale 0 to 10 (0 no effect, 10 complete control)
# [6] = Preemergence, Rate 250 g/ha, scale of 0 to 10 where 0 is no effect and 10 is complete control
# [7] = Preemergence, Rate 500 g/ha, scale 0 (no effect) to 10 (complete control)
# [8] = Rate 500 g/ha, Postemergence, scale 0 to 10, 0 no effect, 10 complete control
# [9] = Rate 125 g/ha, Postemergence, scale 0 to 10, 0 no effect, 10 complete control
# [10] = Rate 500 g/ha, listed under Postemergence (flood test species), scale 0 to 10, 0 no effect, 10 complete control
# [11] = Rate 250 g/ha, Postemergence, scale 0 to 10, 0 is no effect, 10 is complete control
structure (smiles),measurement,setting,value
CCN(CC)C(=O)n1oc(=O)n(-c2cccc3c2CCCC3)c1=O [Compound 89],Nutsedge plant response rating,purple nutsedge; [1],0
same,Nutsedge plant response rating,purple nutsedge; [2],0
same,Nutsedge plant response rating,purple nutsedge; [3],0
same,Nutsedge plant response rating,purple nutsedge; [4],0
same,"Plant response rating, Nutsedge",purple nutsedge; [5],0
same,"Plant response rating, Nutsedge",purple nutsedge; [6],0
same,Nutsedge plant response rating,purple nutsedge; [7],0
same,Nutsedge plant response rating,purple nutsedge; [8],0
same,B. signalgrass plant response rating,surinam grass; [1],0
same,B. signalgrass plant response rating,surinam grass; [3],0
same,B. signalgrass plant response rating,surinam grass; [4],0
same,"Plant response rating, B. signalgrass",surinam grass; [5],0
same,"Plant response rating, B. signalgrass",surinam grass; [6],0
same,B. signalgrass plant response rating,surinam grass; [7],0
same,B. signalgrass plant response rating,surinam grass; [9],0
same,B. signalgrass plant response rating,"surinam grass; Rate 500 g/ha, Postemergence, scale of 0 to 10 where 0 is no effect and 10 is complete control",0
same,Barnyardgrass plant response rating,bamyardgrass; [1],0
same,Barnyardgrass plant response rating,"bamyardgrass; Rate 125 g/ha, Postemergence section (flood test species), scale 0 to 10, 0 no effect, 10 complete control",0
same,Barnyardgrass plant response rating,bamyardgrass; [10],0
same,Barnyardgrass plant response rating,"bamyardgrass; flood test, listed under Postemergence, Rate 250 g/ha, scale 0 to 10, 0 no effect, 10 complete control",0
same,Sugarbeets plant response rating,sugar beet; [1],0
same,Sugarbeets plant response rating,sugar beet; [2],0
same,Sugarbeets plant response rating,sugar beet; [4],0
same,"Plant response rating, Sugarbeets",sugar beet; [5],0
same,"Plant response rating, Sugarbeets",sugar beet; [6],0
same,Sugarbeets plant response rating,sugar beet; [7],0
same,"Plant response rating, Sugarbeets",sugar beet; [11],0
same,Sugarbeets plant response rating,sugar beet; [8],6
same,Crabgrass plant response rating,crabgrass; [1],0
same,Crabgrass plant response rating,crabgrass; [2],0
same,Crabgrass plant response rating,crabgrass; [3],0
same,Crabgrass plant response rating,crabgrass; [4],0
same,"Plant response rating, Crabgrass",crabgrass; [5],0
same,"Plant response rating, Crabgrass",crabgrass; [6],0
same,Crabgrass plant response rating,crabgrass; [7],2
same,Crabgrass plant response rating,crabgrass; [8],2
same,Wild oats plant response rating,wild oat; [1],0
same,Wild oats plant response rating,wild oat; [2],0
same,Wild oats plant response rating,wild oat; [4],0
same,"Plant response rating, Wild oats",wild oat; [5],0
same,"Plant response rating, Wild oats",wild oat; [6],0
same,Wild oats plant response rating,wild oat; [7],0
same,"Plant response rating, Wild oats",wild oat; [11],0
same,Wild oats plant response rating,wild oat; [8],0
same,Cocklebur plant response rating,cocklebur; [1],1
same,Cocklebur plant response rating,cocklebur; [2],1
same,Cocklebur plant response rating,cocklebur; [3],2
same,Cocklebur plant response rating,cocklebur; [4],0
same,"Plant response rating, Cocklebur",cocklebur; [5],0
same,"Plant response rating, Cocklebur",cocklebur; [6],0
same,Cocklebur plant response rating,cocklebur; [7],0
same,Cocklebur plant response rating,cocklebur; [8],2
same,Soybean plant response rating,soybean; [1],0
same,Soybean plant response rating,soybean; [2],0
same,Soybean plant response rating,soybean; [4],0
same,"Plant response rating, Soybean",soybean; [5],0
same,"Plant response rating, Soybean",soybean; [6],0
same,Soybean plant response rating,soybean; [7],0
same,"Plant response rating, Soybean",soybean; [11],0
same,Soybean plant response rating,soybean; [8],1
same,Corn plant response rating,corn; [1],0
same,Corn plant response rating,corn; [2],0
same,Corn plant response rating,corn; [3],0
same,Corn plant response rating,corn; [4],0
same,"Plant response rating, Corn",corn; [5],0
same,"Plant response rating, Corn",corn; [6],0
same,Corn plant response rating,corn; [7],0
same,Corn plant response rating,corn; [8],1
same,Rape plant response rating,rape; [1],0
same,Rape plant response rating,rape; [2],0
same,Rape plant response rating,rape; [3],0
same,Rape plant response rating,rape; [4],0
same,"Plant response rating, Rape",rape; [5],0
same,"Plant response rating, Rape",rape; [6],0
same,Rape plant response rating,rape; [7],0
same,Rape plant response rating,rape; [8],0
same,Blackgrass plant response rating,blackgrass; [1],0
same,Blackgrass plant response rating,blackgrass; [2],0
same,Blackgrass plant response rating,blackgrass; [3],0
same,Blackgrass plant response rating,blackgrass; [4],0
same,"Plant response rating, Blackgrass",blackgrass; [5],0
same,"Plant response rating, Blackgrass",blackgrass; [6],0
same,Blackgrass plant response rating,blackgrass; [7],0
same,Blackgrass plant response rating,blackgrass; [8],0
same,Wheat plant response rating,wheat; [1],0
same,Wheat plant response rating,wheat; [2],0
same,Wheat plant response rating,wheat; [4],0
same,"Plant response rating, Wheat",wheat; [5],0
same,"Plant response rating, Wheat",wheat; [6],0
same,Wheat plant response rating,wheat; [7],0
same,"Plant response rating, Wheat",wheat; [11],0
same,Wheat plant response rating,wheat; [8],0
same,Redroot pigweed plant response rating,pigweed; [1],0
same,Redroot pigweed plant response rating,pigweed; [2],0
same,Redroot pigweed plant response rating,pigweed; [4],0
same,"Plant response rating, Redroot pigweed",pigweed; [5],0
same,"Plant response rating, Redroot pigweed",pigweed; [6],0
same,Redroot pigweed plant response rating,pigweed; [7],0
same,"Plant response rating, Redroot pigweed",pigweed; [11],0
same,Redroot pigweed plant response rating,pigweed; [8],5
same,S. Flatsedge plant response rating,"smallflower flatsedge; Postemergence (flood test species), Rate 125 g/ha, scale of 0 to 10 where 0 is no effect and 10 is complete control",0
same,S. Flatsedge plant response rating,smallflower flatsedge; [1],0
same,"Plant response rating, S. Flatsedge","smallflower flatsedge; Rate 250 g/ha, Postemergence (flood test), scale 0 to 10, 0 is no effect, 10 is complete control",0
same,S. Flatsedge plant response rating,smallflower flatsedge; [10],0
same,Velvetleaf plant response rating,velvetleaf; [1],0
same,Velvetleaf plant response rating,velvetleaf; [2],0
same,Velvetleaf plant response rating,velvetleaf; [4],0
same,"Plant response rating, Velvetleaf",velvetleaf; [5],0
same,"Plant response rating, Velvetleaf",velvetleaf; [6],0
same,Velvetleaf plant response rating,velvetleaf; [7],0
same,"Plant response rating, Velvetleaf",velvetleaf; [11],0
same,Velvetleaf plant response rating,velvetleaf; [8],3
same,Bedstraw plant response rating,bedstraw; [1],0
same,Bedstraw plant response rating,bedstraw; [3],0
same,Bedstraw plant response rating,bedstraw; [4],0
same,"Plant response rating, Bedstraw",bedstraw; [5],0
same,"Plant response rating, Bedstraw",bedstraw; [6],0
same,Bedstraw plant response rating,bedstraw; [7],0
same,Bedstraw plant response rating,bedstraw; [9],0
same,Bedstraw plant response rating,bedstraw; [8],3
